Source: BindingDB's records for doi:10.1038/sj.bjp.0702658 (Universit&Agrove, 1999)

Molecular target: T1, Melatonin receptor type 1B (Homo sapiens, UniProt P49286)
T1 sequence (P49286 whole entry): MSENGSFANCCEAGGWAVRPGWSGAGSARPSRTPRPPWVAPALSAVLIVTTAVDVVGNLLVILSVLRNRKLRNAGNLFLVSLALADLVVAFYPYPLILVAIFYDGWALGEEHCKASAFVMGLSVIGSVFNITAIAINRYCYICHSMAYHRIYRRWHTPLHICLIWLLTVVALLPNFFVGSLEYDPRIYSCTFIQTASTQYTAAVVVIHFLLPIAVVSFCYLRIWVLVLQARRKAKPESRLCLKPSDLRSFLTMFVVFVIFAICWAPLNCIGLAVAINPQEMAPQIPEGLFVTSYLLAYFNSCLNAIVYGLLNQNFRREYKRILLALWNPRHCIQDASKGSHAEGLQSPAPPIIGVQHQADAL

| SMILES | Ki [nM] |
| --- | --- |
| CC(=O)NCCc1c[nH]c2ccccc12 [N-Acetyltryptamine] | 64.6 |
| CC(=O)NCCc1c(Cc2ccccc2)[nH]c2ccccc12 [CAS_117946-91-5] | 11.2 |
| O=C(NCCc1c(-c2ccccc2)[nH]c2ccccc12)C1CCC1 [N-CBCPT] | 85.1 |

Continued, values first:

| Ki [nM] | SMILES |
| --- | --- |
| 0.03 | COc1ccc2[nH]c(-c3ccccc3)c(CCNC(C)=O)c2c1 [Melatonin,2-Phenyl] |
| 339 | CC(=O)NCCc1c[nH]c2ccc(O)cc12 [N-Acetyltryptamine,5-Hydroxy] |
